Patent publication US11584763B2, “Chromenopyridine derivatives as phosphatidylinositol phosphate kinase inhibitors” (HIBERCELL, INC., priority 2017, dated 2023)
pIC50: −log10 of the molar value.

Key:
PIP4K 2A = target: T1, PIP4K 2A (Homo sapiens, UniProt P48426); assay: ADP-glo kinase assay PIP4K 2A; assay type: biochemical; design: 4 nM PIP4K2A (full length protein, SignalChem); purchased SignalChem; settings: compounds listed under IC50 bin headings
T1 sequence (P48426 1-406): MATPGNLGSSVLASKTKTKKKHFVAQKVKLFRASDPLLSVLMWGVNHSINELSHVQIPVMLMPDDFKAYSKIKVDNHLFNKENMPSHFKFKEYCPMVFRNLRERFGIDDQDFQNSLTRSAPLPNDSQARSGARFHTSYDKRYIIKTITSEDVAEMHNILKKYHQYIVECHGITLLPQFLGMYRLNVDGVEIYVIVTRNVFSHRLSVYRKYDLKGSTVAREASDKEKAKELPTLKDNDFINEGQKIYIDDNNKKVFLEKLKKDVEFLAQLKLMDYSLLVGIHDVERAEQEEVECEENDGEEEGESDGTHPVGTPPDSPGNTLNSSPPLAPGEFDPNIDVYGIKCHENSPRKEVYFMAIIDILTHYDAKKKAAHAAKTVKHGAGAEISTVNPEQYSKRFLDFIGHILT
Experimental: Dilution series of the compounds were prepared in DMSO at 100 times the final assay concentration (n1=n0/3 in 10 points). The compounds were further diluted to three times the assay concentration in assay buffer (20 mM MOPS pH 7.2, 25 mM magnesium chloride, 0.005% Tween 20). 6 μL of the diluted compounds were added to a 384 well assay plate followed by 9 μL of a mix consisting of 4 nM PIP4K2A (full length protein, SignalChem) and 100 μM PI(5)P diC8 (Tebu-Bio). Enzyme and compounds were pre-incubated at room temperature for 15 minutes.
Then 3 μL of a solution containing 60 μM ATP (Promega) in assay buffer was added to the wells containing compound and enzyme and mixing was performed by pipetting several times. The reaction was incubated at room temperature for 1 h. Then 18 μL of ADP-Glo™ Reagent (Promega) was added to stop the kinase reaction and deplete the unconsumed ATP, mixing was performed by pipetting several times. The plate was incubated at room temperature for 40 minutes before addition of 36 μL of Kinase Detection Reagent (Promega) to convert ADP to ATP and introduce luciferase and luciferin to detect ATP. The reaction was incubated at room temperature for 40 minutes before the luminescence was measured in a in a Victor 3V 1420 multilabel counter (Perkin Elmer).
Percent inhibition of the compounds as compared to dimethyl sulfoxide treated control samples was calculated. Compound concentration versus percent inhibition were fitted to generate IC50 values.

PIP4K2B = target: T2, PIP4K2B (Homo sapiens, UniProt P78356); assay: Trans-FI P kinase assay PIP4K2B (PIP4KtypeIIB inhibition assay); assay type: biochemical; settings: compounds listed under IC50 bin headings; 100 uM GTP; read-out: Trans-FI P kinase assays: PIP4K2B IC50
T2 construct: made in house; host or cells: E. coli
T2 sequence (P78356 1-416): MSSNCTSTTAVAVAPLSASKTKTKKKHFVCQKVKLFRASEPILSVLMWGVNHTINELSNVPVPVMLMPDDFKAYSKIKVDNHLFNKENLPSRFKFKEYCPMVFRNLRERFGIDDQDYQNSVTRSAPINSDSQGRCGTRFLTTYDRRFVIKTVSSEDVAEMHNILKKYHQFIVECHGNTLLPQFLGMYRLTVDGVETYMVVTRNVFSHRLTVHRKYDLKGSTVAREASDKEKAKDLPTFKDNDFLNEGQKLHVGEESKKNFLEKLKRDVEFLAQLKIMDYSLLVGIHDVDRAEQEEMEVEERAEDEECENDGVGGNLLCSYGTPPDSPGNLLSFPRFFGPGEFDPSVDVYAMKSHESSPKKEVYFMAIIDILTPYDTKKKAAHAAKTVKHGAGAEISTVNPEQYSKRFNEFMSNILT
Description: GST tagged PIP4KtypeIIA and B enzymes were overexpressed in E. Coli and purified to >80% homogeneity. Phosphatidyl inositol-5-phosphate (PI5P, Cat. #850152, Avanti Polar Lipids Inc.) was used as the lipid substrate and phosphatidyl ethanolamine (DOPE 18:1, Cat. #850725, Avanti Polar Lipids Inc.) was used as the carrier lipid for assays. Ultrapure ATP and GTP was purchased from Bellbrooke Labs. ADP Glo reagents were obtained from Promega. Transcreener FI reagent was obtained from Bellbrooke labs.
GST-tagged PIP4KtypeIIB (3.4 uL, 2.77 mg/mL) was diluted to 5 mL using HNE buffer to yield 5× enzyme stock (25 nM)
Lipid Preparation: In a 10 mL pyrex glass vial, 1 ug of PI5P and 1 ug of DOPE were suspended in 2.5 mL of HEPES buffer mix and 2.5 mL of H:E buffer. The contents were mixed and sonicated for 3 min to yield a translucent lipid stock.
Compound Preparation: Compounds were stored as 5 mM stocks in neat DMSO as room temperature in glass vials. 5 mM stocks were diluted to 2 mM and then serially diluted (3×) in neat DMSO in 96 well polypropylene plates. From the serially diluted stocks, 3 uL was delivered into 250 uL of 25% DMSO (in water) to generate 5× compound stocks. Typically, the highest compound conc. was 24 uM.
The assay volume was kept at 25 uL. To each well of the reaction plate, 10 uL of lipid stock (1:1 ratio PI5P:DOPE) was delivered. This was followed by the addition of 5 uL of compound in 25% DMSO. Then, to each well, 5 uL of 25 nM (5×) typeIIB enzyme was delivered. The contents were mixed well and incubated for 1 h at 27 C. After 1 h, reaction was initiated by adding 5 uL of 500 uM GTP and the contents were mixed well with a multi-channel pipetteman. The final concentration of the reagents are as follows: 50 mM HEPES, pH 7.3, 10 mM MgCl2, 20 mM NaCl, 0.01% v/v triton-X100, 5% DMSO, 100 uM GTP, 80 uM (2 ug) PI5P, 2 ug DOPE, and 5 nM PIP4KIIB Typically, the highest conc. of compounds was 4.8 uM and the lowest conc. was 0.
After 2 h, the reaction was quenched by adding 25 uL of transcreener FI reagent. The contents were incubated at RT for 1 h and the Fluorescence (Ex: 584 Em: 623) was read using Molecular Devices Paradigm plate reader. […] The blanks were averaged and subtracted from all other wells. Using a calibration curve, RFU was converted to uM GDP (product). IC50 was calculated by plotting the residual activity (expressed as % No inhibitor control) vs. log [Inh. conc.]

SMILES	pIC50 (PIP4K 2A)	pIC50 (PIP4K2B)
CC1Oc2cc(N3CCCC3=O)ccc2-c2cnc(Nc3cnc4cccc(S(C)(=O)=O)c4c3)cc21 (stereo not shown) [Example 92, 1-(5-methyl-3-((5-(methylsulfonyl)quinolin-3-yl)amino)-5H-chromeno[4,3-c]pyridin-8-yl)pyrrolidin-2-one]	8.00 to 9.00	< 6.00
COC(=O)Nc1cncc(Nc2cc3c(cn2)-c2ccc(N4CCCC4=O)cc2OC3C)c1 (stereo not shown) [Example 98, methyl (5-((5-methyl-8-(2-oxopyrrolidin-1-yl)-5H-chromeno[4,3-c]pyridin-3-yl)amino)pyridin-3-yl)carbamate]	8.00 to 9.00	7.00 to 8.00
CNC(=O)Nc1cncc(Nc2cc3c(cn2)-c2ccc(N4CCCC4=O)cc2OC3C)c1 (stereo not shown) [Example 99, 1-methyl-3-(5-((5-methyl-8-(2-oxopyrrolidin-1-yl)-5H-chromeno[4,3-c]pyridin-3-yl)amino)pyridin-3-yl)urea]	8.00 to 9.00	7.00 to 8.00
CC1Oc2cc(N3CCCC3=O)ccc2-c2cnc(Nc3cncc(NC(=O)CO)c3)cc21 (stereo not shown) [Example 101, 2-hydroxy-N-(5-((5-methyl-8-(2-oxopyrrolidin-1-yl)-5H-chromeno[4,3-c]pyridin-3-yl)amino)pyridin-3-yl)acetamide]	8.00 to 9.00	7.00 to 8.00
CC1Oc2cc(N3CCCC3=O)ccc2-c2cnc(Nc3cncc(NC(=O)Nc4ccccn4)c3)cc21 (stereo not shown) [Example 102, 1-(5-((5-methyl-8-(2-oxopyrrolidin-1-yl)-5H-chromeno[4,3-c]pyridin-3-yl)amino)pyridin-3-yl)-3-(pyridin-2-yl)urea]	8.00 to 9.00	7.00 to 8.00
CC1Oc2cc(N3CCCC3=O)ccc2-c2cnc(Nc3cncc(NC(=O)C4CCNC4=O)c3)cc21 (stereo not shown) [Example 104, N-(5-((5-methyl-8-(2-oxopyrrolidin-1-yl)-5H-chromeno[4,3-c]pyridin-3-yl)amino)pyridin-3-yl)-2-oxopyrrolidine-3-carboxamide]	8.00 to 9.00	7.00 to 8.00
CC1Oc2cc(N3CCCC3=O)ccc2-c2cnc(Nc3cncc(NC(=O)CCC(=O)O)c3)cc21 (stereo not shown) [Example 105, 4-((5-((5-methyl-8-(2-oxopyrrolidin-1-yl)-5H-chromeno[4,3-c]pyridin-3-yl)amino)pyridin-3-yl)amino)-4-oxobutanoic acid]	8.00 to 9.00	7.00 to 8.00
CC1Oc2cc(N3CCCC3=O)ccc2-c2cnc(Nc3cncc(NC(=O)Cc4ccccc4)c3)cc21 (stereo not shown) [Example 107, N-(5-((5-methyl-8-(2-oxopyrrolidin-1-yl)-5H-chromeno[4,3-c]pyridin-3-yl)amino)pyridin-3-yl)-2-phenylacetamide]	8.00 to 9.00	7.00 to 8.00
CC1Oc2cc(N3CCCC3=O)ccc2-c2cnc(Nc3cncc(NC(=O)c4ccc5cc[nH]c5c4)c3)cc21 (stereo not shown) [Example 108, N-(5-((5-methyl-8-(2-oxopyrrolidin-1-yl)-5H-chromeno[4,3-c]pyridin-3-yl)amino)pyridin-3-yl)-1H-indole-6-carboxamide]	8.00 to 9.00	7.00 to 8.00
CC1Oc2cc(N3CCCC3=O)ccc2-c2cnc(Nc3cncc(NC(=O)c4ccc5ncoc5c4)c3)cc21 (stereo not shown) [Example 109, N-(5-((5-methyl-8-(2-oxopyrrolidin-1-yl)-5H-chromeno[4,3-c]pyridin-3-yl)amino)pyridin-3-yl)benzo[d]oxazole-6-carboxamide]	8.00 to 9.00	8.00 to 9.00
CC1Oc2cc(N3CCCC3=O)ccc2-c2cnc(Nc3cncc(NC(=O)c4ccc(NC=O)c(O)c4)c3)cc21 (stereo not shown) [Example 109A, 4-formamido-3-hydroxy-N-(5-((5-methyl-8-(2-oxopyrrolidin-1-yl)-5H-chromeno[4,3-c]pyridin-3-yl)amino)pyridin-3-yl)benzamide]	8.00 to 9.00	7.00 to 8.00
CC1Oc2cc(N3CCCC3=O)ccc2-c2cnc(Nc3cncc(NC(=O)CCc4ccccc4)c3)cc21 (stereo not shown) [Example 110, N-(5-((5-methyl-8-(2-oxopyrrolidin-1-yl)-5H-chromeno[4,3-c]pyridin-3-yl)amino)pyridin-3-yl)-3-phenylpropanamide]	8.00 to 9.00	7.00 to 8.00
CC1Oc2cc(N3CCCC3=O)ccc2-c2cnc(Nc3cncc(NC(=O)[C@H]4C[C@@H]4c4ccccc4)c3)cc21 (stereo partly drawn) [Example 111, (1S,2S)—N-(5-((5-methyl-8-(2-oxopyrrolidin-1-yl)-5H-chromeno[4,3-c]pyridin-3-yl)amino)pyridin-3-yl)-2-phenylcyclopropane-1-carboxamide]	8.00 to 9.00	7.00 to 8.00
CC1Oc2cc(N3CCCC3=O)ccc2-c2cnc(Nc3cncc(NC(=O)c4ccccn4)c3)cc21 (stereo not shown) [Example 112, N-(5-((5-methyl-8-(2-oxopyrrolidin-1-yl)-5H-chromeno[4,3-c]pyridin-3-yl)amino)pyridin-3-yl)picolinamide]	8.00 to 9.00	7.00 to 8.00
CC1Oc2cc(N3CCCC3=O)ccc2-c2cnc(Nc3cncc(NC(=O)c4cccnc4)c3)cc21 (stereo not shown) [Example 113, N-(5-((5-methyl-8-(2-oxopyrrolidin-1-yl)-5H-chromeno[4,3-c]pyridin-3-yl)amino)pyridin-3-yl)nicotinamide]	8.00 to 9.00	7.00 to 8.00
CC1Oc2cc(N3CCCC3=O)ccc2-c2cnc(Nc3cncc(NC(=O)c4ccncc4)c3)cc21 (stereo not shown) [Example 114, N-(5-((5-methyl-8-(2-oxopyrrolidin-1-yl)-5H-chromeno[4,3-c]pyridin-3-yl)amino)pyridin-3-yl)isonicotinamide]	8.00 to 9.00	7.00 to 8.00
CC1Oc2cc(N3CCCC3=O)ccc2-c2cnc(Nc3cncc(NC(=O)c4ccnc(N)c4)c3)cc21 (stereo not shown) [Example 115, 2-amino-N-(5-((5-methyl-8-(2-oxopyrrolidin-1-yl)-5H-chromeno[4,3-c]pyridin-3-yl)amino)pyridin-3-yl)isonicotinamide]	≥ 9.00	8.00 to 9.00
